Data published in ChEMBL document CHEMBL5329222, “Discovery of novel tubulin CBSI (R)-9k from the indanone scaffold for the treatment of colorectal cancer” (RSC Med Chem, 2023).
Active and inactive are the calls of the source. The calls are words filed in the database; no cut-off is given here.

What was measured:
HCT-116 [1] = experiment: Antiproliferative activity against human HCT-116 cells assessed as inhibition of cell growth incubated for 1.5 hrs by CCK-8 assay; assay type: functional, cell-based; settings: HCT-116, 1.5 h
A2780 [2] = experiment: Antiproliferative activity against human A2780 cells assessed as inhibition of cell growth incubated for 1.5 hrs by CCK-8 assay; assay type: functional, cell-based
HeLa [3] = experiment: Antiproliferative activity against human HeLa cells assessed as inhibition of cell growth incubated for 1.5 hrs by CCK-8 assay; assay type: functional, cell-based
SW480 = experiment: Growth inhibition of human SW480 cells incubated for 1.5 hrs by MTT assay; assay type: functional, cell-based
[4] = Cytotoxicity against human HUVEC cells assessed as inhibition of cell growth incubated 1.5 hrs by MTT assay; assay type: toxicity, cell-based
[5] = Cytotoxicity against HEK293 cells assessed as inhibition of cell growth incubated 1.5 hrs by MTT assay; assay type: toxicity, cell-based; settings: human
CT26 = experiment: Growth inhibition of CT26 cells incubated for 1.5 hrs by MTT assay; assay type: functional, cell-based; settings: Mus musculus, CT26, 1.5 h
A2780 [6] = experiment: Growth inhibition of human A2780 cells incubated for 1.5 hrs by MTT assay; assay type: functional, cell-based; settings: A2780, 1.5 h
HCT-116 [7] = experiment: Inhibition of colony formation in human HCT-116 cells at 0.1 uM incubated for 48 hrs by crystal violet staining based analysis; assay type: functional
Tubulin = experiment: Inhibition of tubulin (unknown origin) polymerization; assay type: protein-complex assay, Homo sapiens
HCT-116 [8] = experiment: Growth inhibition of human HCT-116 cells incubated for 1.5 hrs by MTT assay; assay type: functional, cell-based; settings: HCT-116, 1.5 h
HeLa [9] = experiment: Growth inhibition of human HeLa cells incubated for 1.5 hrs by MTT assay; assay type: functional, cell-based
HeLa [10] = experiment: Potency index, ratio of 5-fluorouracil IC50 to test compound IC50 for antiproliferative activity against human HeLa cells assessed as inhibition of cell growth; assay type: functional
HCT-116 [11] = experiment: Potency index, ratio of 5-fluorouracil IC50 to test compound IC50 for antiproliferative activity against human HCT-116 cells assessed as inhibition of cell growth; assay type: functional
A2780 [12] = experiment: Potency index, ratio of 5-fluorouracil IC50 to test compound IC50 for antiproliferative activity against human A2780 cells assessed as inhibition of cell growth; assay type: functional
Estrogen receptor beta = Estrogen receptor beta (Homo sapiens, UniProt Q92731); experiment: Binding affinity to human recombinant ERbeta incubated for 20 mins
Estrogen receptor beta, sequence (Q92731 whole entry): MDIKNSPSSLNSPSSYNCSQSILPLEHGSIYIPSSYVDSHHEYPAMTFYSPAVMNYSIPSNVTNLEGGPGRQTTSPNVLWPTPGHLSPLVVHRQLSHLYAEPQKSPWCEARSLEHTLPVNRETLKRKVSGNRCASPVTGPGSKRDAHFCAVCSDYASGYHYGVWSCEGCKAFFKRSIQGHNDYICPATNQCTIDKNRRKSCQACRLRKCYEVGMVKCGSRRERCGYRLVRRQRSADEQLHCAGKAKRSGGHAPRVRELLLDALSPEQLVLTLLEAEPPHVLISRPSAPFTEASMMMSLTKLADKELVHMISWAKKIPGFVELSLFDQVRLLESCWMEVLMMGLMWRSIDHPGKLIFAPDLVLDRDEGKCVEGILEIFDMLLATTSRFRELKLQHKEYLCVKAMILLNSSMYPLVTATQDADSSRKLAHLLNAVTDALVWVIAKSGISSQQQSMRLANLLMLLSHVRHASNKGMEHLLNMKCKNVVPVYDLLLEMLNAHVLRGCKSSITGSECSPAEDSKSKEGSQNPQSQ

MDA-MB-231 = experiment: Antiproliferative activity against human MDA-MB-231 cells assessed as inhibition of cell growth incubated for 24 hrs by MTT assay; assay type: functional, cell-based; settings: MDA-MB-231, 24 h
MCF7 = experiment: Antiproliferative activity against human MCF7 cells assessed as inhibition of cell growth incubated for 24 hrs by MTT assay; assay type: functional, cell-based; settings: MCF7, 24 h
[13] = biological target: Tubulin beta (Homo sapiens) (UniProt P68371+Q9H4B7+Q13509+P04350+Q3ZCM7+P07437+Q13885+Q9BVA1+Q9BUF5+A6NNZ2); experiment: Binding affinity to beta-tubulin colchicine binding site in human HCT-116 cells assessed as inhibition of EBI-beta-tubulin adduct band formation at 5 to 25 uM preincubated for 2 hrs followed by EBI addition measured after 1.5 hrs by EBI competition based Western blotting analysis; assay type: cell-based; settings: dose 5-25 µM, time 3.5 hrs

| SMILES | IC50 (HCT-116 [1]) | IC50 (A2780 [2]) | IC50 (HeLa [3]) | also measured |
| --- | --- | --- | --- | --- |
| COc1ccc(C2CC(=O)c3cc(OC)c(OC)c(OC)c32)cc1 (stereo not drawn) | 1.88 µM | 0.69 µM | 0.43 µM | – |
| COc1ccc(C2CC(=O)c3cc(OC)c(OC)c(OC)c32)cc1Br (stereo not drawn) | 0.8 µM | 4.87 µM | 3.52 µM | – |
| COc1cc2c(c(OC)c1OC)C(c1ccc(OC(C)(C)C)cc1)CC2=O (stereo not drawn) | 15.4 µM | 12.6 µM | 9.15 µM | – |
| O=c1[nH]cc(F)c(=O)[nH]1 [FLUOROURACIL] | – | 36.3 µM | 15.7 µM | IC50 (SW480): 37.5 µM; IC50 at 1.5 h [4]: 0.43 µM; IC50 at 1.5 h [5]: 5.11 µM; IC50 (CT26): 59.2 µM; IC50 (A2780 [6]): 32.1 µM |
| COc1ccc(C2CC(=O)c3cc(OC)c(OC)c(OC)c32)cc1Cl (stereo not drawn) | 0.31 µM | 2.52 µM | 2.13 µM | – |
| COc1cc2c(c(OC)c1OC)-c1ccc(OC)c(=O)cc1[C@@H](NC(C)=O)CC2 [COLCHICINE] | 0.035 µM | 0.043 µM | 0.026 µM | IC50 at 1.5 h [4]: 9.62 µM; inhibition (HCT-116 [7]): Active; IC50 at 1.5 h [5]: 0.17 µM |
| COc1ccc(C2CC(=O)c3cc(OC)c(OC)c(OC)c32)cc1OC (stereo not drawn) | 13.3 µM | 23.9 µM | 8.21 µM | – |
| COc1ccc([C@H]2NC(=O)c3cc(OC)cc(OC)c32)cc1 | – | – | – | IC50 (Tubulin): > 100 µM |
| COc1cc2c(c(OC)c1OC)C(c1ccc(OC(C)C)cc1)CC2=O (stereo not drawn) | 17.3 µM | 4.98 µM | 6.87 µM | – |
| COc1cc(C2CC(=O)c3cc(OC)c(OC)c(OC)c32)cc(OC)c1OC (stereo not drawn) | > 100 µM | > 100 µM | > 100 µM | – |
| CCOc1ccc([C@@H]2CC(=O)c3cc(OC)c(OC)c(OC)c32)cc1F | – | – | – | IC50 (SW480): 4.52 µM; IC50 (HCT-116 [8]): 0.58 µM; IC50 (CT26): 10.8 µM; IC50 (A2780 [6]): 3.69 µM; IC50 (HeLa [9]): 1.05 µM |
| COc1cc2c(c(OC)c1OC)C(c1ccc(SC)cc1)CC2=O (stereo not drawn) | 1.82 µM | 2.91 µM | 2.27 µM | – |
| COc1ccc(C2CC(=O)c3cc(OC)c(OC)c(OC)c32)cc1[N+](=O)[O-] (stereo not drawn) | 1.93 µM | 2.73 µM | 2.22 µM | – |
| COc1cc(OC)cc(C2CC(=O)c3cc(OC)c(OC)c(OC)c32)c1 (stereo not drawn) | > 100 µM | > 100 µM | > 100 µM | – |
| COc1ccc(C2CC(=O)c3cc(OC)c(OC)c(OC)c32)cc1F (stereo not drawn) | 0.25 µM | 0.7 µM | 0.6 µM | – |
| COc1cc(C2CC(=O)c3cc(OC)c(OC)c(OC)c32)ccc1Cl (stereo not drawn) | > 100 µM | > 100 µM | > 100 µM | – |
| CCOc1ccc(C2CC(=O)c3cc(OC)c(OC)c(OC)c32)cc1F (stereo not drawn) | 0.24 µM | 0.51 µM | 0.37 µM | IC50 (SW480): 3.6 µM; Ratio IC50 (HeLa [10]): 42; Ratio IC50 (HCT-116 [11]): 54; IC50 (HCT-116 [8]): 0.35 µM; IC50 (CT26): 5.24 µM; Ratio IC50 (A2780 [12]): 71; IC50 (A2780 [6]): 1.81 µM; IC50 (HeLa [9]): 0.66 µM |
| CCOc1ccc(C2CC(=O)c3cc(OC)c(OC)c(OC)c32)cc1 (stereo not drawn) | 0.3 µM | 0.71 µM | 0.48 µM | – |
| COc1ccc(C2CC(=O)c3cc(OC)c(OC)c(OC)c32)cc1I (stereo not drawn) | 8.5 µM | 7.58 µM | 7.22 µM | – |
| COc1ccc([C@@H]2C(=O)c3ccc(OC)cc3[C@H]2c2ccc(OCCN3CCC(C)CC3)cc2)cc1 | – | – | – | IC50 (Estrogen receptor beta): 0.51 µM; IC50 (MDA-MB-231): 3.94 µM; IC50 (MCF7): 7.16 µM |
| CCOc1ccc(C2CC(=O)c3cc(OC)c(OC)c(OC)c32)cc1Cl (stereo not drawn) | 1.86 µM | 2.33 µM | 2.08 µM | – |
| CC[C@]1(O)C[C@H]2CN(CCc3c([nH]c4ccccc34)[C@@](C(=O)OC)(c3cc4c(cc3OC)N(C=O)[C@H]3[C@@](O)(C(=O)OC)[C@H](OC(C)=O)[C@]5(CC)C=CCN6CC[C@]43[C@@H]65)C2)C1 | – | – | – | Activity [13]: Active |
| CCOc1ccc(C2CC(=O)c3cc(OC)c(OC)c(OC)c32)cc1Br (stereo not drawn) | 8.99 µM | 4.11 µM | 4.99 µM | – |
| COc1ccc([C@H]2NC(=O)c3cc(OC)c(OC)c(OC)c32)cc1 | – | – | – | IC50 (Tubulin): 52 µM |
